Measured values taken from US20030022821A1, “Bioactive peptides” (priority 1998, published 2003).
Values after ≈ are worked out from the molar mass of the structure shown. Like-named read-outs stand apart in the source and are kept apart here. Square brackets hold non-standard residues; d marks the D form. Ends that are not written are not given here. Peptide text beside a SMILES is read from it. * marks the point of attachment. Trp(2-Pmc) = Cc1c(C)c(S(=O)(=O)c2[nH]c3ccccc3c2C[C@H](N)C(=O)O)c(C)c2c1OC(C)(C)CC2; Acm = CC(=O)NC*

Tests used:
Format in all cases: cell-based
[1] = tested on: human red blood cells; assay: Hemolytic assay; conditions: for % Hemolysis 10 μg/ml / % Hemolysis 100 μg/ml: red cells of human
Experimental: The hemolytic activities of the peptides were determined using fresh human red blood cells. 8 ml blood was taken from a healthy person. 4 ml blood was transferred to a polycarbonate tube containing heparin to a final concentration of 10 U/ml, and the remaining 4 ml blood was transferred to a glass tube containing EDTA with final concentration of 15% EDTA. The erythrocytes were isolated from heparin-treated blood by centrifugation in 1500 rpm for 10 min and washed three times with phosphate-buffered saline (PBS) to remove plasma and buffy coat. The cell pellet was resuspended in PBS to make the final volume of 4 ml. The peptide was diluted to a concentration of 2 mg/ml and 0.1 mg/ml. The peptide was further diluted to the concentrations as stated in Table 15. For each tube PBS was added first, then RBCs and peptide solutions. The hematocrit in the blood treated with EDTA was determined after 30 min with Sysmex K-1000, and the resuspended RBCs were diluted into 10% hematocrit. RBCs in PBS (1%) with and without peptides (Table 15) were incubated in a shaker at […] for 1 hour and then centrifuged at 4000 rpm for 5 min. The supernatant were carefully transferred to new polycarbonate tubes and the absorbance of the supernatant was measured at 540 nm. Baseline hemolysis was hemoglobin released in the presence of PBS, and 100% hemolysis was hemoglobin released in the presence of 0.1% Triton X-100.

[2] = tested on: Escherichia coli ATCC 25922
Experimental: (§1) The bacterial strains used were: Escherichia coli ATCC 25922 and Staphylococcus aureus ATCC 25923. All strains were stored at −70° C. The bacteria were grown in 2% Bacto Peptone water (Difco 1807-17-4). All tests were performed with bacteria in mid-logarithmic growth phase. Determination of the minimum inhibitory concentration (MIC) of the peptides for bacterial strains were performed in 1% Bacto Peptone water. A standard microdilution technique with an inoculum of 2×10^6 CFU/ml was used. All assays were performed in triplets. Since the peptides are positively charged and therefore could adhere to the plastic wells, we controlled the actual concentration of the peptides in the solution by HPLC. There was no difference between the concentration of the peptides before or after adding the solution to the plastic wells.

[3] = tested on: Staphylococcus aureus ATCC 25923
Experimental: as §1

Compound	% Hemolysis 10 μg/ml [1]	% Hemolysis 100 μg/ml [1]	MIC E. coli ([2]; ATCC 25922)	MIC S. aureus ([3]; ATCC 25923)	also measured
CSCC[C@@H](NC(=O)[C@@H](CCCCN)NC(=O)[C@@H](CCCCN)NC(=O)[C@@H](CC(C)C)NC(=O)CNC(=O)[C@@H](C)N)C(=O)N[C@H](CCCNC(=N)N)C(=O)N[C@H](Cc1c[nH]c2ccccc12)C(=O)N[C@H](CCC(N)=O)C(=O)N[C@H](Cc1c[nH]c2ccccc12)C(=O)N[C@H](CCCNC(=N)N)C(=O)N[C@H](CCCNC(=N)N)C(=O)N[C@H](CSCNC(C)=O)C(=O)N[C@H](CCCCN)C(=O)N[C@H](Cc1ccccc1)C(=O)O [Retro-Enantio LFB 17-31]	3.31%	–	–	–	MIC E. coli ([2]; Table 3): 6.25 µg/mL (≈ 3.03 µM); MIC S. aureus ([3]; Table 3, unit assumed): 80 µg/mL (≈ 38.7 µM)
CSCC[C@H](NC(=O)[C@H](CCC(=O)O)NC(=O)[C@H](Cc1c[nH]c2ccccc12)NC(=O)[C@H](CCC(N)=O)NC(=O)[C@H](Cc1c[nH]c2ccccc12)NC(=O)[C@H](CCCNC(=N)N)NC(=O)[C@H](CC(C)C)NC(=O)[C@H](CSCNC(C)=O)NC(=O)[C@H](CCCCN)NC(=O)[C@@H](N)CCCNC(=N)N)C(=O)N[C@@H](CCCNC(=N)N)C(=O)N[C@@H](CCCCN)C(=O)N[C@H](C(=O)NCC(=O)NCC(=O)O)C(C)C [LFM R1, W8] (H-RKC(Acm)LRWQWEMRKVGG-OH; N-terminus assumed)	2.8%	3.48%	75 µg/mL (≈ 37.4 µM)	500 µg/mL (≈ 249 µM)	–
CSCC[C@H](NC(=O)[C@H](CCCNC(=N)N)NC(=O)[C@H](Cc1ccc2ccccc2c1)NC(=O)[C@H](CCC(N)=O)NC(=O)[C@H](Cc1c[nH]c2ccccc12)NC(=O)[C@H](CCCNC(=N)N)NC(=O)[C@H](CCCNC(=N)N)NC(=O)[C@H](CSCNC(C)=O)NC(=O)[C@H](CCCCN)NC(=O)[C@@H](N)Cc1ccccc1)C(=O)N[C@@H](CCCCN)C(=O)N[C@@H](CCCCN)C(=O)N[C@@H](CC(C)C)C(=O)NCC(=O)N[C@@H](C)C(=O)O [LFB Nal8]	3%	4.7%	10 µg/mL (≈ 4.82 µM)	50 µg/mL (≈ 24.1 µM)	–
H-FKARRWAWRMKKLGA-OH [LFB A3, 7]	–	–	–	–	EC 50 [1]: >1000 µg/mL; EC50 [1]: > 525 µM
CSCC[C@H](NC(=O)[C@H](CCCNC(=N)N)NC(=O)[C@H](Cc1c[nH]c2ccccc12)NC(=O)[C@H](CCC(N)=O)NC(=O)[C@H](C)NC(=O)[C@H](CCCNC(=N)N)NC(=O)[C@H](CCCNC(=N)N)NC(=O)[C@H](CSCNC(C)=O)NC(=O)[C@H](CCCCN)NC(=O)[C@@H](N)Cc1ccccc1)C(=O)N[C@@H](CCCCN)C(=O)N[C@@H](CCCCN)C(=O)N[C@@H](CC(C)C)C(=O)NCC(=O)N[C@@H](C)C(=O)O [LFB A6] (H-FKC(Acm)RRAQWRMKKLGA-OH; N-terminus assumed)	2.78%	3.27%	>200 µg/mL	>200 µg/mL	–
CSCC[C@H](NC(=O)[C@H](CCCNC(=N)N)NC(=O)[C@H](Cc1c[nH]c2ccccc12)NC(=O)[C@H](CCC(N)=O)NC(=O)[C@H](Cc1ccc2ccccc2c1)NC(=O)[C@H](CCCNC(=N)N)NC(=O)[C@H](CCCNC(=N)N)NC(=O)[C@H](CSCNC(C)=O)NC(=O)[C@H](CCCCN)NC(=O)[C@@H](N)Cc1ccccc1)C(=O)N[C@@H](CCCCN)C(=O)N[C@@H](CCCCN)C(=O)N[C@@H](CC(C)C)C(=O)NCC(=O)N[C@@H](C)C(=O)O [LFB Nal6]	2.2%	4.4%	20 µg/mL (≈ 9.63 µM)	75 µg/mL (≈ 36.1 µM)	–
CSCC[C@H](NC(=O)[C@H](C)NC(=O)[C@H](Cc1c[nH]c2ccccc12)NC(=O)[C@H](CCC(N)=O)NC(=O)[C@H](Cc1c[nH]c2ccccc12)NC(=O)[C@H](CCCNC(=N)N)NC(=O)[C@H](CC(C)C)NC(=O)[C@H](CSCNC(C)=O)NC(=O)[C@H](CCCCN)NC(=O)[C@@H](N)CCC(=O)O)C(=O)N[C@@H](CCCNC(=N)N)C(=O)N[C@@H](CCCCN)C(=O)N[C@H](C(=O)NCC(=O)NCC(=O)O)C(C)C [LFM A9 W8] (H-EKC(Acm)LRWQWAMRKVGG-OH; N-terminus assumed)	2.5%	3.5%	>1000 µg/mL	>1000 µg/mL	–
H-FKWRRWQWRMKKLWA-OH [LFB W3, 14, H2N-Phe-Lys-Trp-Arg-Arg-Trp-Gln-Trp-Arg-Met-Lys-Lys-Leu-Trp-Ala-COOH]	3.1%	5.1%	–	–	EC 50 [1]: >1000 µg/mL; EC50 [1]: > 453 µM; MIC E. coli ([2]; Table 6): 10 µg/mL; MIC E. coli ([2]; Table 12): 10 µg/mL; MIC S. aureus ([3]; Table 6, unit assumed): 10 µg/mL; MIC S. aureus ([3]; Table 12): 10 µg/mL
YRMWRWAWRWR-NH2 [LFB 17-27 A7 M3 R2, 11 W4, 10 Y1 NH2]	–	–	–	–	EC50 [1]: 291 ± 91 µM; EC 50 ([1]; Table 13, toxicity (hemolysis)): 510 ± 160 µg/mL
CSCC[C@H](NC(=O)[C@H](CCCCN)NC(=O)[C@H](CCCCN)NC(=O)[C@H](CC(C)C)NC(=O)CNC(=O)[C@H](C)N)C(=O)N[C@@H](CCCNC(=N)N)C(=O)N[C@@H](Cc1c[nH]c2ccccc12)C(=O)N[C@@H](CCC(N)=O)C(=O)N[C@@H](Cc1c[nH]c2ccccc12)C(=O)N[C@@H](CCCNC(=N)N)C(=O)N[C@@H](CCCNC(=N)N)C(=O)N[C@@H](CSCNC(C)=O)C(=O)N[C@@H](CCCCN)C(=O)N[C@@H](Cc1ccccc1)C(=O)O [Retro LFB 17-31]	2.01%	–	–	–	MIC E. coli ([2]; Table 3): 80 µg/mL (≈ 38.7 µM); MIC S. aureus ([3]; Table 3, unit assumed): 200 µg/mL (≈ 96.8 µM)
CSCC[C@H](NC(=O)[C@H](CCCNC(=N)N)NC(=O)[C@H](Cc1c(S(=O)(=O)c2c(C)c(C)c3c(c2C)CCC(C)(C)O3)[nH]c2ccccc12)NC(=O)[C@H](CCC(N)=O)NC(=O)[C@H](Cc1ccc2ccccc2c1)NC(=O)[C@H](CCCNC(=N)N)NC(=O)[C@H](CCCNC(=N)N)NC(=O)[C@H](CSCNC(C)=O)NC(=O)[C@H](CCCCN)NC(=O)[C@@H](N)Cc1ccccc1)C(=O)N[C@@H](CCCCN)C(=O)N[C@@H](CCCCN)C(=O)N[C@@H](CC(C)C)C(=O)NCC(=O)N[C@@H](C)C(=O)O [LFB Nal6 PMC]	2.8%	17.8%	25 µg/mL (≈ 10.7 µM)	20 µg/mL (≈ 8.54 µM)	–
CSCC[C@H](NC(=O)[C@H](CCCNC(=N)N)NC(=O)[C@H](Cc1c[nH]c2ccccc12)NC(=O)[C@H](CCC(N)=O)NC(=O)[C@H](Cc1ccc(-c2ccccc2)cc1)NC(=O)[C@H](CCCNC(=N)N)NC(=O)[C@H](CCCNC(=N)N)NC(=O)[C@H](CSCNC(C)=O)NC(=O)[C@H](CCCCN)NC(=O)[C@@H](N)Cc1ccccc1)C(=O)N[C@@H](CCCCN)C(=O)N[C@@H](CCCCN)C(=O)N[C@@H](CC(C)C)C(=O)NCC(=O)N[C@@H](C)C(=O)O [LFB Bip6]	–	–	25 µg/mL (≈ 11.9 µM)	25 µg/mL (≈ 11.9 µM)	–
CSCC[C@H](NC(=O)[C@H](CCCNC(=N)N)NC(=O)[C@H](Cc1c(S(=O)(=O)c2c(C)c(C)c3c(c2C)CCC(C)(C)O3)[nH]c2ccccc12)NC(=O)[C@H](CCC(N)=O)NC(=O)[C@H](C)NC(=O)[C@H](CCCNC(=N)N)NC(=O)[C@H](CCCNC(=N)N)NC(=O)[C@H](CSCNC(C)=O)NC(=O)[C@H](CCCCN)NC(=O)[C@@H](N)Cc1ccccc1)C(=O)N[C@@H](CCCCN)C(=O)N[C@@H](CCCCN)C(=O)N[C@@H](CC(C)C)C(=O)NCC(=O)N[C@@H](C)C(=O)O [LFB A6 PMC] (H-FKC(Acm)RRAQ[Trp(2-Pmc)]RMKKLGA-OH)	–	–	25 µg/mL (≈ 11.3 µM)	17.5 µg/mL (≈ 7.89 µM)	–
LFH Pmc: human lactoferricin with Pmc attached to the only available tryptophan	–	–	–	–	MIC E. coli ([2]; Table 5): 25 µg/mL; MIC S. aureus ([3]; Table 5, unit assumed): 50 µg/mL
CSCC[C@H](NC(=O)[C@H](CCCNC(=N)N)NC(=O)[C@H](Cc1c[nH]c2ccccc12)NC(=O)[C@H](CCC(N)=O)NC(=O)[C@H](Cc1c[nH]c2ccccc12)NC(=O)[C@H](C)NC(=O)[C@H](CCCNC(=N)N)NC(=O)[C@H](CSCNC(C)=O)NC(=O)[C@H](CCCCN)NC(=O)[C@@H](N)Cc1ccccc1)C(=O)N[C@@H](CCCCN)C(=O)N[C@@H](CCCCN)C(=O)N[C@@H](CC(C)C)C(=O)NCC(=O)N[C@@H](C)C(=O)O [LFB A5] (H-FKC(Acm)RAWQWRMKKLGA-OH)	–	–	120 µg/mL (≈ 60.6 µM)	>200 µg/mL	–
CSCC[C@H](NC(=O)[C@H](CCC(=O)O)NC(=O)[C@H](Cc1c[nH]c2ccccc12)NC(=O)[C@H](CCC(N)=O)NC(=O)[C@H](Cc1c[nH]c2ccccc12)NC(=O)[C@H](CCCNC(=N)N)NC(=O)[C@H](CC(C)C)NC(=O)[C@H](CSCNC(C)=O)NC(=O)[C@H](CCCCN)NC(=O)[C@@H](N)CCCNC(=N)N)C(=O)N[C@@H](CCCNC(=N)N)C(=O)N[C@@H](CCCCN)C(=O)N[C@@H](Cc1ccc(O)cc1)C(=O)NCC(=O)NCC(=O)O [LFM R1 W8 Y13] (H-RKC(Acm)LRWQWEMRKYGG-OH; N-terminus and C-terminus assumed)	–	–	50 µg/mL (≈ 24.2 µM)	50 µg/mL (≈ 24.2 µM)	–
